Like-named read-outs stand apart in the source and are kept apart here.
Key:
β-lactamase = target: T1, β-lactamase (Citrobacter freundii, UniProt P05193); experiment: biochemical
T1 construct: Various β-lactamases can be isolated from penicillin- or cephalosporin-resistant bacterial strains such as; endogenous in cells; host or cells: Citrobacter freundii 1203 (enzyme purified from the crude cell extract, after ampicillin induction when necessary)
Method: A. Isolation of the β-lactamases
Various β-lactamases can be isolated from penicillin- or cephalosporin-resistant bacterial strains such as Klebsiella pneumoniae NCTC 418, Proteus vulgaris 1028, Bacillus licheniformis 749/C, Escherichia coli SN01 and Citrobacter freundii 1203. For this purpose, the corresponding strains are cultivated in Tryptic Soy Broth (Difco) and harvested by centrifugation in the last logarithmic growth phase (when necessary 50-100 mg/l of ampicillin are added to the medium towards the end of the log-phase in order to induce the β-lactamase). The thus-obtained bacterial mass is treated with 20 mM Tris-HCl buffer (pH 7.0); the cells are broken open with a French press while cooling. The mixture is centrifuged (20,000 r/min.) for 20-30 minutes and a clear crude extract is obtained.
B. Determination of the β-lactamase activity
The determination of the activity of the isolated β-lactamases can be carried out according to the method of O'Callaghan, C. H. et al. [Antimicr. Ag. Chemother., 1, 283-288 (1972)] using the chromogenic cephalosporin nitrocefin (87/312 from Glaxo). The requisite test batch contains per ml of water: 50 mM phosphate buffer (pH 7.0), 0.1 mM nitrocefin and sufficient enzyme (β-lactamase) to achieve a ΔA/min. of about 0.1. The cleavage of the substrate, which is accompanied by a change in colour, is effected at 37° C. and is followed quantitatively at 482 nm using a spectral photometer.
C. Determination of the β-lactamase-inhibiting activity of the compounds of general formula I
The above-described cleavage of the chromogenic substrate by β-lactamases (test B.) can be inhibited by the addition of compounds of general formula I (inhibitors). […] As a measurement for the affinity of the particular tested inhibitor to the β-lactamase, which is a measurement of the strength of the inhibitor, there serves that concentration which inhibits by 50% (IC 50 in nM) the cleavage of the substrate (nitrocefin) effected under the above test conditions (test B) in the absence of an inhibitor. […] The determination of the IC50 was effected by means of a graph.
(Test organism: Citrobacter freundii)

Citrobacter freundii = experiment: MIC in vitro of a 1:4 combination of ceftriaxone with a compound of formula I (test D); type: cell-based; settings: 1:4 combination of ceftriaxone with the compound
Method: D. Determination of the β-lactamase-inhibiting activity by combination of a compound of general formula I with ceftriaxone
The minimum inhibitory concentration in vitro (MIC in μg/ml) of a 1:4 combination of ceftriaxone with a compound of formula I against Citrobacter freundii is measured and compiled in Table 2 hereinafter.

[1] = IC 50 nM, isolated β-lactamase of Citrobacter freundii, substrate nitrocefin 0.1 mM, 15 minutes pre-incubation with inhibitor, 37° C., pH 7.0

T1 sequence (P05193 21-381): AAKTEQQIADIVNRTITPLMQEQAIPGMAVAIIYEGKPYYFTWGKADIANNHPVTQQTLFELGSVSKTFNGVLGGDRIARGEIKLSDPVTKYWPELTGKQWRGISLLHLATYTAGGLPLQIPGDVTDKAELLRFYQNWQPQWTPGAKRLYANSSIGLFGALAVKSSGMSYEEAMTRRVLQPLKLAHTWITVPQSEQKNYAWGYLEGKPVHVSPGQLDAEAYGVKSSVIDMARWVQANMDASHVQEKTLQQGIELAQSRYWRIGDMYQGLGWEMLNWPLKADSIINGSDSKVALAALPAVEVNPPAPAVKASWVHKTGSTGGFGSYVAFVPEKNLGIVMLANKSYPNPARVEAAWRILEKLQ

Row | SMILES | IC50 (β-lactamase; [1]) | MIC (Citrobacter freundii) | IC50 (β-lactamase) | IC50 (β-lactamase; isolated β-lactamase of Citrobacter freundii, substrate nitrocefin 0.1 mM, 15 minutes pre-incubation with inhibitor, 37° C., pH 7.0, read-out: IC 50 nM)
1 | O=C(CNc1ccc(O)cc1)N1CC[C@@H]2[C@H]1C(=O)N2S(=O)(=O)[O-].[Na+] [6(v), (1S,5R)-2-(4-Hydroxy-phenylaminoacetyl)-7-oxo-2,6-diazabicyclo[3.2.0]heptane-6-sulfonic acid sodium salt] | 3.5 nM | 8 µg/mL | – | –
2 | O=C(/C=C/c1cccs1)N1CC[C@@H]2[C@H]1C(=O)N2S(=O)(=O)O [8(a), (1S,5R)-2-[(E)-3-(2-Thienyl)acryloyl]-7-oxo-2,6-diaza-bicyclo[3.2.0]heptane-6-sulphonic acid] | – | 4 µg/mL | 75 nM | –
3 | O=C(Cn1cnnn1)N1CC[C@@H]2[C@H]1C(=O)N2S(=O)(=O)[O-].[Na+] [8(b), (1S,5R)-7-Oxo-2-(1H-tetrazol-1-ylacetyl)-2,6-diazabicyclo[3.2.0]heptane-6-sulphonic acid sodium salt] | 500 nM | 1 µg/mL | – | –
4 | O=C(/C=C/c1c[nH]cn1)N1CC[C@@H]2[C@H]1C(=O)N2S(=O)(=O)[O-].[Na+] [8(d), (1S,5R)-2-[(E)-3-(4-Imidazolyl)acryloyl]-7-oxo-2,6-diazabicyclo[3.2.0]heptane-6-sulphonic acid sodium salt] | 34 nM | 0.5 µg/mL | – | –
5 | O=C(CCc1ccccc1)N1CC[C@@H]2[C@H]1C(=O)N2S(=O)(=O)[O-].[Na+] [11(b), (1S,5R)-7-Oxo-2-(3-phenyl-propionyl)-2,6-diazabicyclo[3.2.0]heptane-6-sulphonic acid sodium salt] | 573 nM | 16 µg/mL | – | –
6 | O=C(/C=C/c1ccc(OS(=O)(=O)[O-])c(OS(=O)(=O)[O-])c1)N1CC[C@@H]2[C@H]1C(=O)N2S(=O)(=O)[O-].[Na+].[Na+].[Na+] [11(c), (1S,5R)-2-[(E)-3,4-Bis(sulphoxy)cinnamoyl]-7-oxo-2,6-diazabicyclo[3.2.0]heptane-6-sulphonic acid sodium salt] | 1 nM | 16 µg/mL | – | –
7 | O=C1[C@@H]2[C@@H](CCN2S(=O)(=O)Cc2ccccc2)N1S(=O)(=O)[O-].[Na+] [11(d), (1S,5R)-2-(Benzylsulphonyl)-7-oxo-2,6-diazabicyclo [3.2.0]heptane-6-sulphonic acid sodium salt] | 142 nM | 4 µg/mL | – | –
8 | Nc1ccc(/C=C/C(=O)N2CC[C@@H]3[C@H]2C(=O)N3S(=O)(=O)O)cc1 [12(a), (1S,5R)-2-[(E)-p-Aminocinnamoyl]-7-oxo-2,6-diazabicyclo[3.2.0]heptane-6-sulphonic acid] | – | 4 µg/mL | 105 nM | –
9 | O=C(CSc1nc[nH]n1)N1CC[C@@H]2[C@H]1C(=O)N2S(=O)(=O)O [12(b), (1S,5R)-7-Oxo-2-(1,2,4-triazol-3-yl-thioacetyl)-2,6-diazabicyclo[3.2.0]heptan-6-sulphonic acid] | – | 2 µg/mL | – | 115 nM
10 | COc1cc(CNC(=O)N2CC[C@@H]3[C@H]2C(=O)N3S(=O)(=O)[O-])on1.[Na+] [17(aa), (1S,5R)-2-[3-Methoxy-isoxazol-5-ylmethylcarbamoyl]-7-oxo-2,6-diazabicyclo[3.2.0]heptane-6-sulfonic acid sodium salt] | 75 nM | 0.5 µg/mL | – | –
11 | O=C(NCc1ccc(O)cc1)N1CC[C@@H]2[C@H]1C(=O)N2S(=O)(=O)[O-].[Na+] [17(ab), (1S,5R)-2-[4-Hydroxy-benzylcarbamoyl]-7-oxo-2,6-diazabicyclo[3.2.0]heptane-6-sulfonic acid sodium salt] | 194 nM | 1 µg/mL | – | –
12 | O=C(NC1CCCC1)N1CC[C@@H]2[C@H]1C(=O)N2S(=O)(=O)[O-].[Na+] [17(ac), (1S,5R)-2-Cyclopentylcarbamoyl-7-oxo-2,6-diazabicyclo[3.2.0]heptane-6-sulfonic acid sodium salt] | 70 nM | 1 µg/mL | – | –
13 | O=C1OCCN1NC(=O)N1CC[C@@H]2[C@H]1C(=O)N2S(=O)(=O)[O-].[Na+] [17(ad), (1S,5R)-7-Oxo-2-[2-oxo-oxazolidin-3-ylcarbamoyl]-2,6-diazabicyclo[3.2.0]heptane-6-sulfonic acid sodium salt] | 75 nM | 2 µg/mL | – | –

From patent US6566355B1 (Hoffmann-La Roche Inc., priority 1991, dated 2003)
